Measurements from ChEMBL document CHEMBL3872240, “Simple N,N-dimethyl phenylsulfonamides show potent anticonvulsant effect in two standard epilepsy models” (Bioorg Med Chem Lett, 2017).
The source made the active and inactive calls. The rule behind the calls is not given here.

Columns and labels:
Mus musculus [1] = assay: Neurotoxicity in Carworth Farm1 mouse assessed as sedation up to 100 mg/kg, ip; assay type: toxicity, organism-based; conditions: in vivo
Mus musculus [2] = assay: Neurotoxicity in Carworth Farm1 mouse assessed as somnolence up to 100 mg/kg, ip; assay type: toxicity, organism-based; conditions: in vivo
Mus musculus [3] = assay: Neurotoxicity in Carworth Farm1 mouse assessed as muscle relaxation up to 100 mg/kg, ip; assay type: toxicity, organism-based; conditions: in vivo
Mus musculus [4] = assay: Anticonvulsant activity in Carworth Farm1 mouse assessed as protection against maximal electroshock-induced seizures at 50 mg/kg, ip administered 30 mins prior to 60-Hz current induction; assay type: functional, organism-based
Mus musculus [5] = assay: Anticonvulsant activity in Carworth Farm1 mouse assessed as protection against maximal electroshock-induced seizures at 100 mg/kg, ip administered 30 mins prior to 60-Hz current induction; assay type: functional, organism-based
Mus musculus [6] = assay: Anticonvulsant activity in Carworth Farm1 mouse assessed as protection against subcutaneous pentylenetetrazole-induced seizures at 400 mg/kg, ip after 30 mins; assay type: functional, organism-based
Mus musculus [7] = assay: Anticonvulsant activity in Carworth Farm1 mouse assessed as protection against subcutaneous pentylenetetrazole-induced seizures at 100 mg/kg, ip after 30 mins; assay type: functional, organism-based
Mus musculus [8] = assay: Anticonvulsant activity in ip dosed Carworth Farm1 mouse assessed as protection against subcutaneous pentylenetetrazole-induced seizures after 30 mins; assay type: functional; conditions: Carworth Farm1, 0.5 h
Mus musculus [9] = assay: Anticonvulsant activity in ip dosed Carworth Farm1 mouse assessed as protection against maximal electroshock-induced seizures administered 30 mins prior to 60-Hz current induction; assay type: functional
Mus musculus [10] = assay: Anticonvulsant activity in Carworth Farm1 mouse assessed as protection against maximal electroshock-induced seizures at 25 mg/kg, ip administered 30 mins prior to 60-Hz current induction; assay type: functional, organism-based
[11] = Metabolic stability in rat liver microsomes assessed as amount of parent compound remaining after 30 mins; assay type: ADME; conditions: read-out: Stability
Mus musculus [12] = assay: Anticonvulsant activity in Carworth Farm1 mouse assessed as protection against maximal electroshock-induced seizures at 400 mg/kg, ip administered 30 mins prior to 60-Hz current induction; assay type: functional, organism-based
Mus musculus [13] = assay: Anticonvulsant activity in Carworth Farm1 mouse assessed as protection against maximal electroshock-induced seizures at 100 to 400 mg/kg, ip administered 30 mins prior to 60-Hz current induction; assay type: functional, organism-based
Mus musculus [14] = assay: Anticonvulsant activity in Carworth Farm1 mouse assessed as protection against maximal electroshock-induced seizures at 50 to 100 mg/kg, ip administered 30 mins prior to 60-Hz current induction; assay type: functional, organism-based

Structure (SMILES) | Activity (Mus musculus [1]) | Activity (Mus musculus [2]) | Activity (Mus musculus [3]) | Activity (Mus musculus [4]) | Activity (Mus musculus [5]) | also measured
CN(C)S(=O)(=O)c1cc(Cl)ccc1Cl | Non-Toxic | Non-Toxic | Non-Toxic |  |  | 
CN(C)S(=O)(=O)c1cccc(C#N)c1 | Non-Toxic | Non-Toxic | Non-Toxic | Active | Active | 
O=S(=O)(c1cccc(Cl)c1)N1CCCC1 | Non-Toxic | Non-Toxic | Non-Toxic |  |  | 
CCN(CC)S(=O)(=O)c1cccc(Cl)c1 | Non-Toxic | Non-Toxic | Non-Toxic | Active | Active | Activity (Mus musculus [6]): Active
CN(C)S(=O)(=O)c1cccc(N)c1 | Non-Toxic | Non-Toxic | Non-Toxic |  |  | 
Cc1cccc(S(=O)(=O)N(C)C)c1 | Non-Toxic | Non-Toxic | Non-Toxic |  |  | 
CN(C)S(=O)(=O)c1cc(Cl)cc(Cl)c1 | Non-Toxic | Non-Toxic | Non-Toxic |  | Active | 
CN(C)S(=O)(=O)c1cccc(C(F)(F)F)c1 | Non-Toxic | Non-Toxic | Non-Toxic |  | Active | Activity (Mus musculus [7]): Active
COc1cccc(S(=O)(=O)N(C)C)c1 | Non-Toxic | Non-Toxic | Non-Toxic |  |  | 
CN(C)S(=O)(=O)c1cccc(Cl)c1 | Non-Toxic | Non-Toxic | Non-Toxic | Active | Active | ED50 (Mus musculus [8]): 34 mg/kg; Activity (Mus musculus [7]): Active; ED50 (Mus musculus [9]): 12 mg/kg; Activity (Mus musculus [6]): Active; Activity (Mus musculus [10]): Active; remaining at 0.5 h [11]: 95%
CN(C)S(=O)(=O)c1cccc(OC(F)(F)F)c1 | Non-Toxic | Non-Toxic | Non-Toxic |  | Active | 
CCCN(C)S(=O)(=O)c1cccc(Cl)c1 | Non-Toxic | Non-Toxic | Non-Toxic |  |  | 
CNS(=O)(=O)c1cccc(Cl)c1 | Non-Toxic | Non-Toxic | Non-Toxic | Active | Active | Activity (Mus musculus [6]): Active; Activity (Mus musculus [10]): Active
NS(=O)(=O)c1cccc(Cl)c1 | Non-Toxic | Non-Toxic | Non-Toxic | Active | Active | Activity (Mus musculus [10]): Active
CN(C)S(=O)(=O)c1ccccc1 | Non-Toxic | Non-Toxic | Non-Toxic |  | Active | 
CN(C)S(=O)(=O)c1ccccc1Cl | Non-Toxic | Non-Toxic | Non-Toxic | Active | Active | Activity (Mus musculus [12]): Active; Activity (Mus musculus [6]): Active; Activity (Mus musculus [13]): Active
CN(C)S(=O)(=O)c1ccc(Cl)c(Cl)c1 | Non-Toxic | Non-Toxic | Non-Toxic |  | Active | 
CNS(=O)(=O)Cc1cccc(Cl)c1 | Non-Toxic | Non-Toxic | Non-Toxic |  |  | 
CN(C)S(=O)(=O)c1cccc(Oc2ccccc2)c1 | Non-Toxic | Non-Toxic | Non-Toxic |  |  | 
CN(C)S(=O)(=O)c1cccc([N+](=O)[O-])c1 | Non-Toxic | Non-Toxic | Non-Toxic |  | Active | 
CN(CCO)S(=O)(=O)c1cccc(Cl)c1 | Non-Toxic | Non-Toxic | Non-Toxic |  |  | 
CC1(C)O[C@@H]2[C@@H](CO[C@@]3(COS(N)(=O)=O)OC(C)(C)O[C@@H]23)O1 [TOPIRAMATE] |  |  |  |  |  | ED50 (Mus musculus [8]): > 800 mg/kg; ED50 (Mus musculus [9]): 33 mg/kg
CN(C)S(=O)(=O)c1ccc(Cl)cc1 | Non-Toxic | Non-Toxic | Non-Toxic | Active | Active | Activity (Mus musculus [6]): Active; Activity (Mus musculus [10]): Active
CN(C)S(=O)(=O)c1cccc(F)c1 | Non-Toxic | Non-Toxic | Non-Toxic | Active | Active | Activity (Mus musculus [7]): Active; Activity (Mus musculus [10]): Active
CN(C)S(=O)(=O)c1cccc(Br)c1 | Non-Toxic | Non-Toxic | Non-Toxic | Active | Active | 
CCNC(=O)C1=C(Cl)c2ccccc2S(=O)(=O)N1C |  |  |  |  |  | Activity (Mus musculus [14]): Active
NS(=O)(=O)Cc1noc2ccccc12 [ZONISAMIDE] |  |  |  |  |  | ED50 (Mus musculus [8]): > 500 mg/kg; ED50 (Mus musculus [9]): 20 mg/kg
